Assay results reported in PubChem BioAssay (NCI).
“And” between values parts separate entries of the source, which are not always exact repeats. Equal entries are not always repeated.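 Cells were grown in 96-well plates and exposed to each compound for 48 hours at five concentrations; endpoints were interpolated linearly between bracketing concentrations, or set to the highest concentration if not reached. GI50 marks 50% less growth. TGI: concentration producing complete growth inhibition.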

Key:
Assay in all cases: NCI anticancer screen, dose series, 48 h
[1] = system: SK-MEL-28 melanoma
[2] = system: RPMI-8226 leukemia
[3] = system: A498 renal
[4] = system: EKVX NSCLC
[5] = system: OVCAR-3 ovarian
[6] = system: HCC-2998 colon
[7] = system: BT-549 breast
[8] = system: OVCAR-4 ovarian
[9] = system: MDA-MB-435
[10] = system: M14 melanoma

| Structure (SMILES) | GI50 [1] | TGI [1] | TGI [2] | GI50 [3] | TGI [3] | GI50 [4] | TGI [4] | GI50 [5] | TGI [5] | GI50 [6] | TGI [6] | TGI [7] | GI50 [8] | TGI [8] | GI50 [9] | TGI [9] | TGI [10] | GI50 [2] | GI50 [7] | GI50 [10] |
| --- | --- | --- | --- | --- | --- | --- | --- | --- | --- | --- | --- | --- | --- | --- | --- | --- | --- | --- | --- | --- |
| COc1ccc2c(c1)-c1nn(CCCN(C)C)c3ccc([N+](=O)[O-])c(c13)N2 | 0.77 µM and 1.75 µM | 7.78 µM and 12.6 µM | 25.5 µM | 0.458 µM and 1.54 µM | 3.51 µM and 8.8 µM | 0.393 µM and 1 µM | 4.22 µM and 9.84 µM | 0.339 µM and 1.11 µM | 3.95 µM and 7.29 µM | 0.148 µM and 0.728 µM | 1.73 µM and 12.2 µM | 7.19 µM | 0.234 µM and 0.649 µM | 1.18 µM and 2 µM | 0.165 µM and 0.593 µM | 2.9 µM | 4.7 µM and 7 µM |  |  |  |
| CCC(C)C(=O)OCC(=O)c1ccc(-c2ccccc2)cc1 (centres undefined) |  | > 100 µM | 71.5 µM |  | > 100 µM |  | 84.4 µM |  | > 100 µM |  | > 100 µM | > 100 µM |  |  |  | > 100 µM | > 100 µM |  |  |  |
| CC1OC(CC(=O)O)CC2=C1C(=O)c1c(O)cccc1C2=O (centres undefined) |  | 0.2 µM | 0.241 µM |  | 2.36 µM |  | 2.02 µM |  | 0.299 µM |  | 1.69 µM | 0.361 µM |  | 0.742 µM |  | 0.283 µM | 0.389 µM |  |  |  |
| NC(=O)c1sc(-n2cnc3cc(C(F)(F)F)ccc32)cc1OCc1ccccc1Br | > 23.4 µM | > 25 µM | > 25 µM | > 25 µM | > 25 µM | > 25 µM | > 25 µM | > 16.7 µM | > 25 µM | > 25 µM | > 25 µM | > 25 µM | 9.02 µM | > 25 µM | > 16.5 µM | > 25 µM | > 25 µM | > 23.6 µM | > 25 µM | > 25 µM |
| O=C(CCCN1CCC(C(O)c2ccc(F)cc2)CC1)c1ccc(F)cc1 (centres undefined) |  | 118 µM | 168 µM |  | 94.4 µM |  | 136 µM |  | 116 µM |  | 93.4 µM | 93 µM |  | 134 µM |  | 109 µM | 109 µM |  |  |  |
| N#CC(C#N)=C/C=C(\Sc1ccc(F)cc1Cl)c1ccc(Cl)cc1 | 1.23 µM | 10.4 µM | 0.515 µM | 8.97 µM | 24 µM | 8.42 µM | 26.9 µM | 0.762 µM | 2.64 µM | 2.3 µM | 4.54 µM | 3.7 µM | 4.97 µM | > 64.2 µM | 0.35 µM | 1.73 µM | 2.03 µM | 0.0963 µM | 0.598 µM | 0.433 µM |
| NC1(Cc2ccc(Cl)cc2)CCN(c2ncnc3[nH]ccc23)CC1 | 6.63 µM | 19.8 µM | 26.5 µM | 0.546 µM | 4.58 µM | 2.69 µM | 18.5 µM | 11.7 µM | 25 µM | 3.89 µM | 17 µM | 16.3 µM | 17.6 µM | 60.5 µM | 4.67 µM | 18.1 µM | 23.6 µM | 4.37 µM | 3.45 µM | 8.58 µM |
| COc1ccc(C(=O)c2sc3nc(-c4cccs4)ccc3c2N)cc1OC | 4.98 µM | 70.4 µM | > 100 µM | 2 µM | > 100 µM |  |  | 6.78 µM | > 100 µM | 26.2 µM | > 100 µM | > 100 µM | 6.75 µM | > 100 µM | 1.43 µM | 4.76 µM | > 100 µM | 5.45 µM | 3.82 µM | 4.27 µM |
| CC(=O)OC1=CC2(OC(C)=O)CC(C)(C)C1C1C(=O)C=CC(=O)C12 (centres undefined) |  | > 100 µM | > 100 µM |  | > 100 µM |  | > 100 µM |  | > 100 µM |  | > 100 µM | 32.3 µM |  | > 100 µM |  | 53.4 µM | > 100 µM |  |  |  |
| CCOC(=O)Nc1cc2ccccc2c(N=Nc2ccccc2)c1O |  | > 100 µM | > 100 µM |  | > 100 µM |  | > 100 µM |  | > 100 µM |  | > 100 µM | > 100 µM |  | 49.3 µM |  | > 100 µM | > 100 µM |  |  |  |
| COc1cc2c(c(OC)c1OC)-c1ccc(N=NC(N)=S)c(=O)cc1[C@@H](NC(C)=O)CC2 | 0.808 µM | > 100 µM | > 100 µM | 0.477 µM | 3.15 µM | > 100 µM | > 100 µM | 0.263 µM | 0.642 µM | 0.311 µM | 1.76 µM | > 100 µM | 1.43 µM | > 100 µM | 0.216 µM | 0.577 µM |  | 0.708 µM | 0.624 µM |  |
| CC(=O)Nc1n[n+]([O-])c2cc(C)ccc2[n+]1[O-] |  | 44.2 µM | > 100 µM |  | 19.4 µM |  | 16.8 µM |  | 7.77 µM |  | 71 µM | 14.2 µM |  | 18 µM |  | 20.8 µM | 8.3 µM |  |  |  |
| Cc1cc(Cl)ccc1C(=O)c1ccc2ccccc2c1C(=O)O |  | > 100 µM | > 100 µM |  | > 100 µM |  |  |  | > 100 µM |  | > 100 µM | > 100 µM |  | > 100 µM |  | > 100 µM | > 100 µM |  |  |  |
| COc1ccc(CCN2CCC(CN(C)Cc3cnn(-c4ccccc4)c3)CC2)cc1 | 2.52 µM | 7.53 µM | 42.1 µM | 1.58 µM | 7.78 µM |  |  | 20.4 µM | 52.4 µM | 5.13 µM | 18.1 µM | 36.2 µM | 7.75 µM | 57.5 µM | 2.54 µM | 6.8 µM |  | 13.8 µM | 14.5 µM |  |
| COc1cc(Cl)cc(-c2nn(-c3cccc(NC(=O)Nc4ccc(Cl)c(Cl)c4)c3)cc2-c2ccncc2)c1 | 2.96 µM | 36.8 µM | 3.37 µM | 2.52 µM | 90.9 µM |  |  | 1.56 µM | 29.4 µM | 3.16 µM | 36.8 µM | 8.28 µM | 2.85 µM | 53.8 µM | 2.08 µM | 6 µM | 10.9 µM | 0.652 µM | 2.62 µM | 2.52 µM |
| O=[N+]([O-])c1cc2no[n+]([O-])c2cc1N1CCCCC1 |  | 32.9 µM | 6.64 µM |  | 35.2 µM |  | 8.98 µM |  |  |  | 33.1 µM | 45.2 µM |  | 8.37 µM |  | 9.44 µM | 7.19 µM |  |  |  |
